Data on seven compounds can be found in patent US11591323B2, “Muscarinic agonists as non-steroidal and non-opioid analgesics and methods of use thereof” (Barry University, priority 2019, dated 2023).

Parameters in all cases: host or cells: CHO cells, stably transfected
The target in assay [1] is T1, M4 muscarinic receptor (Homo sapiens, UniProt P08173).
T1 sequence (P08173 1-479): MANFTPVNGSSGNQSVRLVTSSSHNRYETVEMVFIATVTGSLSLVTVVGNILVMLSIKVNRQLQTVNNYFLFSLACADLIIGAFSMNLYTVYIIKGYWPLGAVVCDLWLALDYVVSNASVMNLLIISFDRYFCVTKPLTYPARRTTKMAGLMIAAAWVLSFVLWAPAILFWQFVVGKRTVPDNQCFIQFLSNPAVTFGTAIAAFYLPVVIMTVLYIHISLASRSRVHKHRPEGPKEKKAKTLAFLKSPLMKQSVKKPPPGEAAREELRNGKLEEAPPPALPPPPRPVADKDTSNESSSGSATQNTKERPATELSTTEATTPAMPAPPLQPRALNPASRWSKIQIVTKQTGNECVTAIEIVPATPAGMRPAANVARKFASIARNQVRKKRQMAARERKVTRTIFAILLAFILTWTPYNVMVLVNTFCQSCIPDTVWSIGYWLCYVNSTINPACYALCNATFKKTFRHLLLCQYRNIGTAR
As to the kind of experiment: [3H]NMS competition binding, M4 CHO membranes. As to conditions: for binding that occurred with high affinity: fraction of binding to M4.

Assay [2] has as its target T1, M4 muscarinic receptor. Description: inhibition of forskolin-stimulated cAMP, M4 CHO cells (M4Gi). The format is cell-based. As to conditions: for Emax: CHO.
For assay [3], the target named is T1, M4 muscarinic receptor. As to the kind of experiment: accumulation of IPX, M4 CHO cells (M4Gq). To be noted: M4Gq (↑IPX). The class given is cell-based. The protocol: (§1) To determine level of cAMP, cells in suspension were pre-incubated for 1 h with 0.4 μM [^3H]adenine, washed, and incubated for 10 min in the presence of isobutylmethylxanthine and 10 μM forskolin. […] Incubation was ended by addition of 0.2 ml of 2.5 M HCl to the samples. Samples were applied to alumina columns (1.5 g of alumina per column), washed with 2 ml ammonium acetate (pH=7.0) and eluted from columns with 4 ml ammonium acetate and measured by liquid scintillation spectrometry. […] The incubation was stopped by addition of 0.5 ml of chloroform methanol HCl mixture (2:1:0.1). After separation of water and organic phases, 0.6 ml of water phase was applied to Dowex columns (1.5 g of Dowex per column), washed by 20 ml of 60 mM ammonium formate/5 mM sodium borate buffer and eluted from columns with 4 ml of 1M ammonium formate/0.1 formic acid buffer and measured by liquid scintillation spectrometry.
(§2) Measurements of the production of cAMP and inositol phosphates: Levels of second messengers cAMP and inositol phosphates were determined in radiochemical chromatography assays as described previously. To determine level of cAMP, cells in suspension were pre-incubated for 1 h with 0.4 μM [^3H]adenine, washed, and incubated for 10 min in the presence of isobutylmethylxanthine and 10 μM forskolin. […] Incubation was ended by addition of 0.2 ml of 2.5 M HCl to the samples. Samples were applied to alumina columns (1.5 g of alumina per column), washed with 2 ml ammonium acetate (pH=7.0) and eluted from columns with 4 ml ammonium acetate and measured by liquid scintillation spectrometry. […] For this purpose, new CHO cell lines stably expressing promiscuous G15 G-protein and M2 or M4 receptor were generated by transfection with pCMV/hygro vector and hygromycin selection. To determine the rate of formation of inositol phosphates IPX, suspended cells were pre-incubated with 0.1 μM [^3H]myo-inositol for 60 min, washed, and incubated with 10 mM LiCl for 15 min. […] The incubation was stopped by addition of 0.5 ml of chloroform methanol HCl mixture (2:1:0.1). After separation of water and organic phases, 0.6 ml of water phase was applied to Dowex columns (1.5 g of Dowex per column), washed by 20 ml of 60 mM ammonium formate/5 mM sodium borate buffer and eluted from columns with 4 ml of 1M ammonium formate/0.1 formic acid buffer and measured by liquid scintillation spectrometry.
(§3) For bi-phasic response, curves were inhibitory and stimulatory phase were fitted separately. Operational Model of Functional Agonism
(§4) [formula] where y is functional response at concentration of tested compound x, EMAX is maximal response of the system, KA is equilibrium dissociation constant and nH is slope factor. Eq. 5 was fitted to data from functional experiments. Eq. 5 was fitted to data by the two-step procedure described earlier. […] In the second step, Eq. 5 with EMAX fixed to the value determined in the first step was fitted to individual experimental data sets. Relative Intrinsic Activity

In assay [4] the target is T1, M4 muscarinic receptor. As to the kind of experiment: stimulation of cAMP, M4 CHO cells (M4Gs). The format is cell-based. To be noted: M4Gs (↑cAMP). The protocol: as §1, §2, §3, §4
Assay [5] has as its target T2, M1 muscarinic receptor (Homo sapiens, UniProt P11229).
T2 sequence (P11229 1-460): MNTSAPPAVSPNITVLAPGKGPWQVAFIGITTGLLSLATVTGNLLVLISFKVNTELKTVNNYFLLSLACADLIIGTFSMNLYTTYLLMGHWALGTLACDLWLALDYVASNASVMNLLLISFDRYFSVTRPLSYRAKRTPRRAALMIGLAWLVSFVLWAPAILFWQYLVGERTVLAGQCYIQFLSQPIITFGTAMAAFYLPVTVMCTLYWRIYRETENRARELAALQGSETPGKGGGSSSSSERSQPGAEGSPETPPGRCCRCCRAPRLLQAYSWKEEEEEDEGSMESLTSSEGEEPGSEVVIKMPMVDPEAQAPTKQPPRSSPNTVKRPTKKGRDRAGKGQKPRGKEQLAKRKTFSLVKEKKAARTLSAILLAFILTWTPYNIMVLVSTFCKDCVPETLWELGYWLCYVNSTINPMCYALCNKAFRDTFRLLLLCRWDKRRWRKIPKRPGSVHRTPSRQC
As to the kind of experiment: stimulation of cAMP, M1 CHO cells (M1Gs). The format is cell-based. To be noted: M1Gs (↑cAMP), Table 8, relative to carbachol. The protocol:
Since activation of phospholipase C (PLC) via M2 and M4 receptors is weak, cells were transferred with G15 G-protein to facilitate coupling.
as §1, §2, §3, §4
Muscarinic receptors are also able to stimulate non-preferential signalling pathways.

Setting [6] is: competition with 1 nM [3H]NMS, read-out: Inhibition constants (Ki) as negative logarithms, M4 (converted).
Where [7] appears, read: high-affinity fraction of binding to M4, read-out: high affinity binding.
Where [8] appears, read: M4 (↓cAMP), preferential response, Table 7, read-out: E′MAX.
The mark [9] stands for this setting: M4 (↓cAMP), preferential response, Table 7, operational efficacy.
Where [10] appears, read: M4 (↓cAMP), preferential response, Table 7, operational model, read-out: pKA (converted).
Where [11] appears, read: M4 (↓cAMP), preferential response, Table 7, read-out: pEC50 (converted).
Where [12] appears, read: M4 (↓cAMP), preferential response, relative to carbachol, Tables 2, 3, 7.
[13] abbreviates: M4 (↓cAMP), preferential response, to carbachol, Tables 2, 3, 7.
Setting [14] is: M4Gi (↓cAMP), Table 8, to carbachol.

Read-outs that look alike come from different tables or passages of the source.

Consider `Cc1ccc(C[N+]2(C)CC=CCC2)s1.[I-]` (centres unmarked) [Compound 7B, 1-methyl-1-[(5-methylthiophen-2-yl)methyl]-1,2,3,6-tetrahydropyridin-1-ium iodide], for which the Ki was 4.37 µM in assay [1] (setting [6]) and approximately 0.03 µM in assay [1] (setting [7]). Besides, the “binding that occurred with high affinity” value in assay [1] is approximately 10%. In addition, the Emax in assay [2] (setting [8]) was determined as 30 ± 1%. Besides, in assay [2] (setting [9]), the τ worked out at 0.51 ± 0.05. In assay [2] (setting [10]), the Kd was 3.98 µM. Moreover, in assay [2] (setting [11]), the EC50 is 2.88 µM. Moreover, the RAi in assay [2] (setting [12]) is listed as 0.0087 ± 0.0009. Besides, the “Δlog(τ/KA)” value in assay [2] (setting [13]) is given as 1.90 ± 0.18.

Regarding `C[N+](C)(C)CCOC(N)=O` [carbachol, reference compound], the “E′MAX” value in assay [3] (Table 8) is 1.78 ± 0.05 fold over basal; in assay [4] (Table 8), 2.9 ± 0.2 fold increase; in assay [2] (M4 (↓cAMP), preferential response, Table 7) it was 55 ± 2 % inhibition; in assay [2] (M4Gi (↓cAMP), Table 8) it was 55 ± 2 % inhibition. Moreover, the τ in assay [3] (Table 8) is reported as 0.24 ± 0.03; in assay [4] (Table 8), 1.9 ± 0.2; in assay [2] (setting [9]), 1.41 ± 0.08; in assay [2] (M4Gi (↓cAMP), Table 8) it was 1.4 ± 0.1. The “Δlog(τ/KA)” value is given as 0 in assay [3] (Table 8, to carbachol); 0 in assay [4] (Table 8, to carbachol); 0 in assay [2] (setting [13]); 0 in assay [2] (setting [14]).

`C[N+]1(Cc2cccs2)CC=CCC1.[I-]` (centres unmarked) [Compound 7A, 1-methyl-1-[(thiophen-2-yl)methyl]-1,2,3,6-tetrahydropyridin-1-ium iodide]: the RAi in assay [3] (Table 8, relative to carbachol) worked out at 0; in assay [4] (Table 8, relative to carbachol), 0; in assay [5] it was 0; in assay [2] (setting [12]) it was 0.0209 ± 0.0011; in assay [2] (M4Gi (↓cAMP), Table 8, relative to carbachol), 0.0209 ± 0.0011. The Ki in assay [1] (setting [6]) is 7.94 µM. Also, the Emax in assay [2] (setting [8]) is 39 ± 2%. The τ in assay [2] (setting [9]) came out at 0.78 ± 0.08; in assay [2] (M4Gi (↓cAMP), Table 8), 0.78 ± 0.08. The Kd in assay [2] (setting [10]) was 3.16 µM; in assay [2] (M4Gi (↓cAMP), Table 8, read-out: pKA (converted)), 3.16 µM. Also, the EC50 is 1.78 µM in assay [2] (setting [11]) and 1.78 µM in assay [2] (M4Gi (↓cAMP), Table 8, read-out: pEC50 (converted)). The “Δlog(τ/KA)” value in assay [2] (setting [13]) and in assay [2] (setting [14]) was 1.58 ± 0.22 each time. The “E′MAX” value in assay [2] (M4Gi (↓cAMP), Table 8) amounted to 39 ± 2 % inhibition.

For the compound `Brc1ccc(CN2CC=CCC2)s1.Cl` [Compound 6C, 1-[(5-bromothiophen-2-yl)methyl]-1,2,3,6-tetrahydropyridin-1-ium chloride], in assay [1] (setting [6]), the Ki is 12.6 µM. Moreover, the Emax in assay [2] (setting [8]) is 13 ± 1%. The τ in assay [2] (setting [9]) is on record as 0.38 ± 0.04. The Kd in assay [2] (setting [10]) is 2.51 µM. Moreover, in assay [2] (setting [11]), the EC50 is 2.14 µM. This compound also returned an RAi in assay [2] (setting [12]) of 0.0041 ± 0.005. Further, in assay [2] (setting [13]), the “Δlog(τ/KA)” value came to 2.13 ± 0.12.

Regarding `Cc1ccc(CN2CC=CCC2)s1.Cl` [Compound 6B, 1-[(5-methylthiophen-2-yl)methyl]-1,2,3,6-tetrahydropyridin-1-ium chloride], the Ki was 28.8 µM in assay [1] (setting [6]); approximately 0.03 µM in assay [1] (setting [7]); 0.02 µM in assay [1] (high-affinity fraction, M4, read-out: pKI of high affinity binding (converted)). Moreover, in assay [1], the “binding that occurred with high affinity” value was approximately 10%. In assay [2] (setting [8]), the Emax was determined as 25 ± 2%. This compound also returned a τ in assay [2] (setting [9]) of 0.39 ± 0.04. Moreover, in assay [2] (setting [10]), the Kd was 12.6 µM. Further, in assay [2] (setting [11]), the EC50 is 9.77 µM. The compound also came in with an RAi in assay [2] (setting [12]) of 0.0020 ± 0.0002. The “Δlog(τ/KA)” value in assay [2] (setting [13]) came out at 2.51 ± 0.20.

Regarding `C[N+]1(Cc2ccc(Br)s2)CC=CCC1.[I-]` (centres unmarked) [Compound 7C, 1-[(5-bromothiophen-2-yl)methyl]-1-methyl-1,2,3,6-tetrahydropyridin-1-ium iodide], in assay [1] (setting [6]), the Ki was 1.45 µM. In assay [2], this compound gave an Emax of 11 ± 1%. Further, in assay [2] (setting [9]), the τ was 0.14 ± 0.01. The Kd in assay [2] (setting [10]) was 2.51 µM. In addition, in assay [2] (setting [11]), the EC50 is 2.4 µM. Also, the RAi in assay [2] (setting [12]) is on record as 0.0030 ± 0.0003. The “Δlog(τ/KA)” value in assay [2] (setting [13]) was found to be 2.26 ± 0.16.

The compound `C[N+]1(Cc2ccc(Cl)s2)CC=CCC1.[I-]` (centres unmarked) [Compound 7D, 1-[(5-chlorothiophen-2-yl)methyl]-1-methyl-1,2,3,6-tetrahydropyridin-1-ium iodide] gave a Ki in assay [1] (Inhibition constants (Ki) as negative logarithms, M4, competition with 1 nM [3H]NMS) of 3.09 µM. Moreover, in assay [2], the EC50 was 4.68 µM, the Kd was 6.31 µM and the Emax was 28 ± 1%. This compound displayed a τ in assay [2] (setting [9]) of 0.46 ± 0.05. In assay [2] (setting [12]), this compound showed an RAi of 0.0048 ± 0.0005. The “Δlog(τ/KA)” value in assay [2] (setting [13]) came out at 2.14 ± 0.19.
